Patent US20040209914A1, “Aromatic sulfone hydroxamic acids and their use as protease inhibitors” (priority 2000, published 2004)
Like-named read-outs stand apart in the source and are kept apart here.

Assays:
Assay in all cases: biochemical
Conditions in all cases: fluorogenic MCA-peptide substrate, pH 7.5, room temperature
Recombinant human MMP-1 = target: T1, Recombinant human MMP-1 (Homo sapiens, UniProt P03956)
T1 construct: made in house; host or cells: transfected HT-1080 cells
T1 sequence (P03956 100-469): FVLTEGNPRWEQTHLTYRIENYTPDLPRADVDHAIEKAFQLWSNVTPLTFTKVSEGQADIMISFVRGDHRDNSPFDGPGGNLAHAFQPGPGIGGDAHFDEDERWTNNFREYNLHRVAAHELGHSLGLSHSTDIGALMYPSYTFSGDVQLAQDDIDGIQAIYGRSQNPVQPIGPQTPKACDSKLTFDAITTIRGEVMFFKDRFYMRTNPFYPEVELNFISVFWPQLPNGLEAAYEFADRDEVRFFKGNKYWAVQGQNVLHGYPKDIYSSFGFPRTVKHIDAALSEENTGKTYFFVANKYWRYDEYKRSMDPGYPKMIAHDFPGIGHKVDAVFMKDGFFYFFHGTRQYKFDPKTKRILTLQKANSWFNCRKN
Method: (§1) Recombinant human MMP-1, MMP-2, MMP-9, MMP-13, and were used in this assay. These enzymes were prepared in the Assignee's es following usual laboratory procedures. Specifics for preparing and e enzymes can be found in the scientific literature describing these See, e.g., Enzyme Nomenclature (Academic Press, San Diego, Calif., d the citations therein).
The MMP-1 was obtained from MMP-1 expressing transfected HT-1080 cells provided by Dr. Harold Welgus of Washington University in St. Louis, Mo. The MMP-1 was activated using 4-aminophenylmercuric acetate (APMA), and then purified over a hydroxamic acid column.
(§2) The enzyme substrate was a methoxycoumarin-containing polypeptide having the following sequence:
(§3) MCA-ProLeuGlyLeuDpaAlaArgNH2
(§4) Here, “MCA” is methoxycoumarin and “Dpa” is 3-(2,4-dinitrophenyl)-L-2,3-diaminopropionyl alanine.
(§5) These solutions were then compared to a control (which contained equal amount of DMSO/buffer solution, but no hydroxamate compound) using Microfluor™ White Plates (Dynatech, Chantilly, Va.). Specifically, The MMPs were activated with APMA or trypsin. […] The control likewise was incubated at room temperature in separate plates with the MMP and 4 uM of the MMP substrate. […] Inhibition was measured as a reduction in fluorescent intensity as a function of inhibitor concentration using a Perkin Elmer (Norwalk, Conn.) L550 plate reader. The IC50's were then calculated from these measurements.

Recombinant human MMP-2 = target: T2, Recombinant human MMP-2 (Homo sapiens, UniProt P08253)
T2 construct: made in house
T2 sequence (P08253 110-660): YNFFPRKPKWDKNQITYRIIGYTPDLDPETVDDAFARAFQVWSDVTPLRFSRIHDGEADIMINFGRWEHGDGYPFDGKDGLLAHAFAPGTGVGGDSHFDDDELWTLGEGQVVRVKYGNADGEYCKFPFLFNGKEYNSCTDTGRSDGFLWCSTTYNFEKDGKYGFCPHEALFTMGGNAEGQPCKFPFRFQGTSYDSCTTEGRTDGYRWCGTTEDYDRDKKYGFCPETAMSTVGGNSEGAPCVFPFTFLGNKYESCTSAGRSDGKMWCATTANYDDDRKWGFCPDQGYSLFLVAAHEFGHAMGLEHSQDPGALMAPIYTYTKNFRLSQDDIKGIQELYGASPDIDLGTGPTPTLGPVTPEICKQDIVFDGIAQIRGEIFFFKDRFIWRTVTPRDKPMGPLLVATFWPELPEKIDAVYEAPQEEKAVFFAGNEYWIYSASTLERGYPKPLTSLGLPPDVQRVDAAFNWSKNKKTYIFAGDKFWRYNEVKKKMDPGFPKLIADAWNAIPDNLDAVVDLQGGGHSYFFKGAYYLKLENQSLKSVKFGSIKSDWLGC
Method: as §1
The MMP-2 was obtained from MMP-2 expressing transfected cells provided by Dr. Gregory Goldberg of Washington University.
as §2, §3, §4, §5

Recombinant human MMP-13 = target: T3, Recombinant human MMP-13 (Homo sapiens, UniProt P45452)
T3 construct: made in house; host or cells: baculovirus / insect cells
Method: as §1
The expressed proenzyme was first purified over a heparin agarose column, and then over a chelating zinc chloride column. The proenzyme was then activated by APMA for use in the assay.
as §2, §3, §4, §5

SMILES | IC50 (Recombinant human MMP-1) | IC50 (Recombinant human MMP-2; read-out: MMP-2 IC50) | IC50 (Recombinant human MMP-13; read-out: MMP-13 IC50) | IC50 (Recombinant human MMP-2; MMP-2 IC50(nM)) | IC50 (Recombinant human MMP-13; MMP-13 IC50(nM))
O=C(C1CCN(c2ccc(S(=O)(=O)C3(C(=O)NO)CCOCC3)cc2)CC1)N1CCN(c2ccccc2Cl)CC1 [Example 4] | > 10000 nM | 2900 nM | 15.6 nM | – | –
Cc1ccc(Cl)cc1N1CCN(C(=O)C2CCN(c3ccc(S(=O)(=O)C4(C(=O)NO)CCOCC4)cc3)CC2)CC1 [Example 6] | > 10000 nM | > 10000 nM | 18.1 nM | – | –
COc1ccccc1N1CCN(C(=O)C2CCN(c3ccc(S(=O)(=O)C4(C(=O)NO)CCOCC4)cc3)CC2)CC1 [Example 7] | > 10000 nM | 4500 nM | 18 nM | – | –
CC(=O)N1CCN(C(=O)C2CCN(c3ccc(S(=O)(=O)C4(C(=O)NO)CCOCC4)cc3)CC2)CC1 [Example 8] | > 10000 nM | – | 50 nM | 2500 nM | –
Cc1ccc(N2CCN(C(=O)C3CCN(c4ccc(S(=O)(=O)C5(C(=O)NO)CCOCC5)cc4)CC3)CC2)c(C)c1 [Example 9] | > 10000 nM | 5600 nM | 12.2 nM | – | –
O=C(C1CCN(c2ccc(S(=O)(=O)C3(C(=O)NO)CCOCC3)cc2)CC1)N1CCN(CCO)CC1 [Example 10] | > 10000 nM | 6000 nM | 40 nM | – | –
CCOC(=O)CN1CCN(C(=O)C2CCN(c3ccc(S(=O)(=O)C4(C(=O)NO)CCOCC4)cc3)CC2)CC1 [Example 11] | > 10000 nM | 2700 nM | 37 nM | – | –
O=C(C1CCN(c2ccc(S(=O)(=O)C3(C(=O)NO)CCOCC3)cc2)CC1)N1CCN(c2ccccc2F)CC1 [Example 12] | > 10000 nM | – | – | 1400 nM | 6.7 nM
O=C(c1ccco1)N1CCN(C(=O)C2CCN(c3ccc(S(=O)(=O)C4(C(=O)NO)CCOCC4)cc3)CC2)CC1 [Example 13] | > 10000 nM | 3500 nM | 31.6 nM | – | –
O=C(C1CCN(c2ccc(S(=O)(=O)C3(C(=O)NO)CCOCC3)cc2)CC1)N1CCN(C2CCCC2)CC1 [Example 14] | > 10000 nM | > 10000 nM | 45 nM | – | –
CC(C)N1CCN(C(=O)C2CCN(c3ccc(S(=O)(=O)C4(C(=O)NO)CCOCC4)cc3)CC2)CC1 [Example 15] | > 10000 nM | 5500 nM | 28 nM | – | –
O=C(CN1CCN(C(=O)C2CCN(c3ccc(S(=O)(=O)C4(C(=O)NO)CCOCC4)cc3)CC2)CC1)N1CCCC1 [Example 16] | > 10000 nM | 4800 nM | 42.5 nM | – | –
COCCN1CCN(C(=O)C2CCN(c3ccc(S(=O)(=O)C4(C(=O)NO)CCOCC4)cc3)CC2)CC1 [Example 18] | > 10000 nM | > 10000 nM | > 10000 nM | – | –
O=C(C1CCN(c2ccc(S(=O)(=O)C3(C(=O)NO)CCOCC3)cc2)CC1)N1CCN(c2ncccn2)CC1 [Example 23] | > 10000 nM | – | – | 1600 nM | 6.4 nM
CC(=O)c1ccc(N2CCN(C(=O)C3CCN(c4ccc(S(=O)(=O)C5(C(=O)NO)CCOCC5)cc4)CC3)CC2)cc1 [Example 24] | > 10000 nM | – | 6.7 nM | 700 nM | –
O=C(C1CCN(c2ccc(S(=O)(=O)C3(C(=O)NO)CCOCC3)cc2)CC1)N1CCN(c2ccc([N+](=O)[O-])cc2)CC1 [Example 25] | > 10000 nM | 445 nM | 4 nM | – | –
O=C(C1CCN(c2ccc(S(=O)(=O)C3(C(=O)NO)CCOCC3)cc2)CC1)N1CCN(c2ccc(C(F)(F)F)cc2)CC1 [Example 33] | 67.4 nM | – | – | – | –
C=CCN1CCN(C(=O)C2CCN(c3ccc(S(=O)(=O)C4(C(=O)NO)CCOCC4)cc3)CC2)CC1 [Example 34] | > 10000 nM | 3700 nM | 19.3 nM | – | –
